Here are results for 19 compounds from patent publication US8796259B2, “N3-heteroaryl substituted triazoles and N5-heteroaryl substituted triazoles useful as axl inhibitors” (Rigel Pharmaceuticals, Inc., priority 2006, dated 2014).

The structures appear in SMILES notation.

The experiment deals with T1, Axl (Homo sapiens, UniProt P30530).
T1 construct: endogenous in cells; host or cells: HeLa cells
T1 sequence (P30530 26-894): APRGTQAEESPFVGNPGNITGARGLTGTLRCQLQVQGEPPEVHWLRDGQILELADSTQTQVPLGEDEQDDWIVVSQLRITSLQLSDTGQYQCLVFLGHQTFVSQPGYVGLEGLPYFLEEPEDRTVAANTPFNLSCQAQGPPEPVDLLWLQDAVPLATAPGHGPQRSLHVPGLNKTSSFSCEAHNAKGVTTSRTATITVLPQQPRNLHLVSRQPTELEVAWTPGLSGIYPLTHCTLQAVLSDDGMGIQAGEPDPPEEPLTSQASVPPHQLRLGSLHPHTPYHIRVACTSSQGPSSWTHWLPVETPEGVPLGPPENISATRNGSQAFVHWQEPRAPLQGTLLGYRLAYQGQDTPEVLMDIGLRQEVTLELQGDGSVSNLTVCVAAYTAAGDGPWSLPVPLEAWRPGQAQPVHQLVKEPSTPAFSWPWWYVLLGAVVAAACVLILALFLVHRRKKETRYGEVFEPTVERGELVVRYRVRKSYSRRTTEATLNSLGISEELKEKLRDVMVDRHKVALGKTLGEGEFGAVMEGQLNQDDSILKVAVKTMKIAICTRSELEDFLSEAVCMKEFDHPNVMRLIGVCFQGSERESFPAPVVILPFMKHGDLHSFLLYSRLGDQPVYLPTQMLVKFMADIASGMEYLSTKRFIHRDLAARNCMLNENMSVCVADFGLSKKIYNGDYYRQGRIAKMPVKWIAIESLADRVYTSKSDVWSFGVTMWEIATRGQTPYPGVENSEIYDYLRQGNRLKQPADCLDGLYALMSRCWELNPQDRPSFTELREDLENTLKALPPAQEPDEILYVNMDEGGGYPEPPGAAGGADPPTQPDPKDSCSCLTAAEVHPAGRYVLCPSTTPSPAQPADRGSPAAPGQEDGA
Put plainly: Phospho-Akt in-cell Western assay (inhibition of Axl activity, Axl-antibody cross-linking stimulation). The format is cell-based. The note with it: Hela cells, phospho-Akt readout; compounds of formula (Ia), Table 1. A digest of the protocol: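 HeLa cells on poly-L-lysine were starved 24 h in 0.5% FCS/DMEM with 500 ng/mL Axl/Fc, pre-treated with compound 1 h at 37 °C, then stimulated 5 min by cross-linked mouse anti-Axl/biotin anti-mouse antibody clusters. After formaldehyde fixation, phospho-Akt was detected by rabbit anti-phospho-Akt and HRP secondary with chemiluminescence read-out.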

Broadly, the IC50 is the concentration needed to halve the response being measured. A high value points to weaker potency in that assay.

The compound `Cc1csc2c(-n3nc(Nc4cnc5c(c4)CC(N(CC4CC4)CC4CC4)CC5)nc3N)nc(Cl)nc12` (stereo not shown) [compound 104, 1-(2-chloro-7-methylthieno [3,2-d]pyrimidin-4-yl)-N^3-(6-bis-(cyclo-propylmethyl)amino-5,6,7,8-tetrahydro-quinolin-3-yl)-1H-1,2,4-triazole-3,5-diamine] showed a concentration for half-maximal inhibition (IC50) below 1 µM. `Cc1csc2c(-n3nc(Nc4cnc5c(c4)CCC(N4CCCC4)CC5)nc3N)ncnc12` (stereo not shown) [compound 105, 1-(7-methylthieno [3,2-d]pyrimidin-4-yl)-N^3-(7-(pyrrolidin-1-yl)-6,7,8,9-tetrahydro-5H-cyclohepta [b]pyridine-3-yl)-1H-1,2,4-triazole-3,5-diamine]: the 50% inhibitory concentration (IC50) is below 1 µM. In the case of `Cc1cc(Nc2nc(N)n(-c3ncnc4c(C)csc34)n2)cnc1N1CCN([C@H]2C[C@@H]3CC[C@H]2C3)[C@@H](C)C1` [compound 106, 1-(7-methylthieno [3,2-d]pyrimidin-4-yl)-N^3-(2-(3-(S)-methyl-4-(1S,2S,4R)-bicyclo[2.2.1]heptan-2-ylpiperazin-1-yl)-3-methylpyridin-5-yl)-1H-1,2,4-triazole-3,5-diamine], the IC50 was below 1 µM. `Cc1cc(Nc2nc(N)n(-c3nc(Cl)nc4c(C)csc34)n2)cnc1N1CCN([C@H]2CC3CCC2C3)[C@@H](C)C1` (stereo partly drawn) [compound 107, 1-(2-chloro-7-methylthieno [3,2-d]pyrimidin-4-yl)-N^3-(2-(3-(S)-methyl-4-(2S)-bicyclo[2.2.1]heptan-2-ylpiperazin-1-yl)-3-methylpyridin-5-yl)-1H-1,2,4-triazole-3,5-diamine] gave a 50% inhibitory concentration (IC50) below 1 µM. `Cc1cc(Nc2nc(N)n(-c3ncnc4ccsc34)n2)cnc1N1CCN([C@H]2CC3CCC2C3)[C@@H](C)C1` (stereo partly drawn) [compound 108, 1-(thieno [3,2-d]pyrimidin-4-yl)-N^3-(2-(3-(S)-methyl-4-(2S)-bicyclo[2.2.1]heptan-2-ylpiperazin-1-yl)-3-methylpyridin-5-yl)-1H-1,2,4-triazole-3,5-diamine] had a 50% inhibitory concentration (IC50) below 1 µM. The figure for `Cc1csc2c(-n3nc(Nc4cnc(N5CCN([C@H]6CC7CCC6C7)CC5)c(Cl)c4)nc3N)nc(Cl)nc12` (stereo partly drawn) [compound 109, 1-(2-chloro-7-methylthieno [3,2-d]pyrimidin-4-yl)-N^3-(2-(4-(2S)-bicyclo[2.2.1]heptan-2-ylpiperazin-1-yl)-3-chloropyridin-5-yl)-1H-1,2,4-triazole-3,5-diamine] is 1 to 10 µM; for `Cc1csc2c(-n3nc(Nc4cnc(N5CCN([C@H]6CC7CCC6C7)CC5)c(Cl)c4)nc3N)ncnc12` (stereo partly drawn) [compound 110, 1-(7-methylthieno [3,2-d]pyrimidin-4-yl)-N^3-(2-(4-(2S)-bicyclo[2.2.1]heptan-2-ylpiperazin-1-yl)-3-chloropyridin-5-yl)-1H-1,2,4-triazole-3,5-diamine] it is 10 to 20 µM; for `Cc1cc(Nc2nc(N)n(-c3ncnc4c(C)csc34)n2)cnc1N1CCN([C@H]2CC3CCC2C3)CC1` (stereo partly drawn) [compound 111, 1-(7-methylthieno [3,2-d]pyrimidin-4-yl)-N^3-(2-(4-(2S)-bicyclo[2.2.1]heptan-2-ylpiperazin-1-yl)-3-methylpyridin-5-yl)-1H-1,2,4-triazole-3,5-diamine] it is below 1 µM.

Compound `Cc1cc(Nc2nc(N)n(-c3nnc(C)c4ccsc34)n2)cnc1N1CCN([C@H]2C[C@@H]3CC[C@H]2C3)CC1` [compound 112, 1-(4-methylthieno [3,2-d]pyridazine-7-yl)-N^3-(2-(4-(1S,2S,4R)-bicyclo[2.2.1]heptan-2-ylpiperazin-1-yl)-3-methylpyridin-5-yl)-1H-1,2,4-triazole-3,5-diamine] returned an IC50 above 20 µM.

For `COc1cc2ncnc(-n3nc(Nc4ccc(C=CCN5CCN(C(C)C)CC5)nc4)nc3N)c2cc1OC` [compound 113, 1-(6,7-dimethoxy-quinazoline-4-yl)-N^3-(2-(3-(4-isopropyl-piperazin-1-yl)propen-1-yl)pyridine-5-yl)-1H-1,2,4-triazole-3,5-diamine], the 50% inhibitory concentration (IC50) is below 1 µM.

Compound `COc1cc2ncnc(-n3nc(Nc4ccc(N5CCN(CC6CC6)[C@@H](C)C5)nc4)nc3N)c2cc1OC` [compound 114, 1-(6,7-dimethoxy-quinazoline-4-yl)-N^3-(2-(4-cyclo-propylmethyl-3-(S)-methyl-piperazin-1-yl)pyridin-5-yl)-1H-1,2,4-triazole-3,5-diamine] returned an IC50 below 1 µM.

In turn, `Cc1csc2c(-n3nc(Nc4ccc(N5CCN(CC6CC6)[C@@H](C)C5)nc4)nc3N)nc(Cl)nc12` [compound 115, 1-(2-chloro-7-methyithieno [3,2-d]pyrimidin-4-yl)-N^3-(2-(4-cyclopropyl-methyl-3-(S)-methyl-piperazin-1-yl)pyridin-5-yl)-1H-1,2,4-triazole-3,5-diamine] came in with an IC50 of 1 to 10 µM.

`Cc1csc2c(-n3nc(Nc4ccc(N5CCN(CC6CC6)[C@@H](C)C5)nc4)nc3N)ncnc12` [compound 116, 1-(7-methyl-thieno[3,2-d]pyrimidin-4-yl)-N^3-(2-(4-cyclo-propylmethyl-3-(S)-methyl-piperazin-1-yl)pyridin-5-yl)-1H-1,2,4-triazole-3,5-diamine]: the IC50 is below 1 µM.

In turn, `Cc1csc2c(-n3nc(Nc4ccc(N5CCN(CC6CC6)[C@@H](C)C5)nc4)nc3N)nc(Cl)nc12` [compound 117, 1-(2-chloro-7-methylthieno [3,2-d]pyrimidin-4-yl)-N^3-(2-(4-cyclopropyl-methyl-3-(S)-methyl-piperazin-1-yl)pyridin-5-yl)-1H-1,2,4-triazoie-3,5-diamine] showed an IC50 below 1 µM.

`Cc1csc2c(-n3nc(Nc4ccc(Br)nc4)nc3N)ncnc12` [compound 118, 1-(7-methylthieno [3,2-d]pyrimidin-4-yl)-N^3-(2-bromopyridin-5-yl)-1H-1,2,4-triazole-3,5-diamine] displayed an IC50 above 20 µM. To `Cc1csc2c(-n3nc(Nc4ccc(C=CCN5CCCC5)nc4)nc3N)ncnc12` [compound 119, 1-(7-methylthieno [3,2-d]pyrimidin-4-yl)-N^3-(2-(3-(pyrrolidin-1-yl)propen-1-yl)pyridin-5-yl)-1H-1,2,4-triazole-3,5-diamine] belongs below 1 µM; to `Cc1csc2c(-n3nc(Nc4ccc(/C=C/CN5CCC(N(C)C)C5)nc4)nc3N)ncnc12` (stereo not shown) [compound 120, 1-(7-methylthieno [3,2-d]pyrimidin-4-yl)-N^3-(2-(3-(3-dimethyl-amino-pyrrolidin-1-yl)propen-1-yl)pyridin-5-yl)-1H-1,2,4-triazole-3,5-diamine], below 1 µM; to `CCN(CC)C1CCN(C/C=C/c2ccc(Nc3nc(N)n(-c4ncnc5c(C)csc45)n3)cn2)C1` (stereo not shown) [compound 121, 1-(7-methylthieno [3,2-d]pyrimidin-4-yl)-N^3-(2-(3-(3-diethyl-amino-pyrrolidin-1-yl)propen-1-yl)pyridin-5-yl)-1H-1,2,4-triazole-3,5-diamine], below 1 µM. To `Cc1csc2c(-n3nc(Nc4ccc(C=CCN5CCC(N6CCCC6)CC5)nc4)nc3N)ncnc12` [compound 122, 1-(7-methylthieno [3,2-d]pyrimidin-4-yl)-N^3-(2-(3-(4-pyrrolidin-1-yl-piperidin-1-yl)propen-1-yl)pyridin-5-yl)-1H-1,2,4-triazole-3,5-diamine] belongs below 1 µM.
